Series [1] deals with autophagy. Kind of series: Autophagy markers (Western blot, Beclin1 immunoprecipitation) in brain extracts of Alzheimer model mice (TG2576). The series is classed as in vivo, TG2576 animals. The conditions noted are these: 5mg/kg daily intraperitoneal for 3 months. As to the method:
(§1) For the precipitation of Beclin1 from brain tissue (Fig. 15), the tissue was first homogenized (300µL of Buffer I (50 mM Tris (pH 7.5), 150 mM NaCl, 5 mM EDTA, Protease inhibitor Mix (Sigma , P2714), Phosphatase Inhibitor (Roche, 04906837001)) followed by sonication and addition of 300µL of Buffer II (50 mM Tris (pH 7.5), 150 mM NaCl, 1% NP40, 1% Deoxycholate, 2% SDS, Protease inhibitor Mix (Sigma , P2714), Phosphatase Inhibitor (Roche, 04906837001)).
(§2) Western blot analysis was performed on eluates from ColPs or with protein extracts from cells or tissue. Protein extracts were obtained by lysing cells or tissue (prelysed as described in the paragraph before) in 62.5 mM Tris, 2% SDS and 10% sucrose, supplemented with protease (Sigma, P2714) and phosphatase (Roche, 04906837001) inhibitor cocktail. Samples were sonicated and heated at 95 °C for 5 min. Proteins were separated by SDS-PAGE and electro-transferred onto nitrocellulose membranes. […]
(§3) TG2576 animals (used as Alzheimer's disease model, overexpress a mutant form of amyloid precursor protein (APP)) were chronically treated with daily intraperitoneal injections of SMIP004 (N-(4-butyl-2-methylphenyl)acetamide; 5mg/kg) or vehicle (0.9% NaCl; 1.25% DMSO) for 3 months. Brain and other tissue was analyzed for markers of autophagy and for the levels of soluble beta-amyloid (Aβ). […]

For series [2], the system named is soluble Aβ. Put plainly: Aβ42 ELISA in Alzheimer model mice (TG2576). The series is classed as in vivo, TG2576 animals. To be noted: 5mg/kg daily intraperitoneal for 3 months. As to the method:
TG2576 animals (used as Alzheimer's disease model, overexpress a mutant form of amyloid precursor protein (APP)) were chronically treated with daily intraperitoneal injections of SMIP004 (N-(4-butyl-2-methylphenyl)acetamide; 5mg/kg) or vehicle (0.9% NaCl; 1.25% DMSO) for 3 months. Brain and other tissue was analyzed for markers of autophagy and for the levels of soluble beta-amyloid (Aβ). It is commonly assumed that Aβ agglomerates are causally linked to Alzheimer's disease.

Series [3] relates to primary rat cortical astrocytes. Put plainly: MTT cytotoxicity assay in primary rat cortical astrocytes. Type of series: cell-based. As to the method:
(§4) Enriched astroglial cultures were prepared from postnatal day 1 rat pups (Sprague-Dawley, Charles River, Sulzfeld, Germany) and handled as described by Attwood BK et al. (2011) Nature 473: 372-375 and Hartmann J et al. (2012) Neuropharmacology 62: 332-339.
In an effort to find a small molecule to inhibit the E3 ligase Skp2 three promising candidates of published chemical genetic screens were tested on cellular toxicity and its potency to stabilise Beclin1. Cytotoxicity was determined by an MTT assay performed in HEK 293 cell and in primary rat cortical astrocytes. Effects of small compounds on Beclin1 and p27 protein levels were determined by Western analysis of HEK 293 primary rat cortical astrocytic lysates (see Fig. 6).

The test system of series [4] is Beclin1. Kind of series: Western analysis of Beclin1 and p27 protein levels in HEK 293 and astrocytic lysates. The conditions noted are these: HEK 293 and primary rat cortical astrocytic lysates. The series is classed as cell-based. As for the experimental part:
as §2, with “membranes. Blots were placed in Tris-buffered saline, supplemented with 0.05% Tween (Sigma, P2287) and 5% non-fat milk for 1 h at room temperature and then incubated with primary antibody (diluted in TBS/0.05% Tween) overnight at 4 °C.” for “membranes.”

Series [5] in a line: Tail suspension test. To be noted: C57BL/6 mice; SMIP004 0.5 or 5 mgkg-1; paroxetine 10 mgkg-1 as comparator. Type of series: in vivo.
In series [6] the test system is Beclin1. Put plainly: Western analysis of Beclin1 protein level in primary rat cortical astrocytes. The series is classed as cell-based. As for the experimental part: as §2, with “membranes. Blots were placed in Tris-buffered saline, supplemented with 0.05% Tween (Sigma, P2287) and 5% non-fat milk for 1 h at room temperature and then incubated with primary antibody (diluted in TBS/0.05% Tween) overnight at 4 °C.” for “membranes.”

Series [7] relates to Beclin1. Kind of series: Protein levels in brain extracts (hippocampus, prefrontal cortex) of SMIP004-treated mice. The series is classed as in vivo, C57BL/6 mice. The conditions noted are these: various cell types; brain lysates of animals treated with SMIP004 (0.5 or 5 mgkg-1). As to the method:
as §2, with “membranes. Blots were placed in Tris-buffered saline, supplemented with 0.05% Tween (Sigma, P2287) and 5% non-fat milk for 1 h at room temperature and then incubated with primary antibody (diluted in TBS/0.05% Tween) overnight at 4 °C.” for “membranes.”
Furthermore the neuronal activity in CA1 hippocampus was measured after treatment with SMIP004 (Figure 7). […] And protein levels were determined in extracts of the hippocampus and the prefrontal cortex.

Series [8] relates to APP-CTF. Put plainly: APP-CTF Western blot in brain extracts of Alzheimer model mice (TG2576). Type of series: in vivo, TG2576 animals. The conditions noted are these: 5mg/kg daily intraperitoneal for 3 months. As for the experimental part: as §1, §2, §3
The test system of series [9] is CA1 neuronal activity. Kind of series: Voltage-sensitive dye imaging (VSDI) of evoked CA1 neuronal activity in brain slices. The conditions noted are these: 10 µM SMIP004, 1 h after wash in; slices from C57BL/6 mice.
Excerpt: Brain slices were obtained from 11-18 week-old male FKBP51+/+ and FKBP51-/- litter mates (Fig. 1) or from BL6 mice (Fig. 7). […] Four acquisitions subsequently recorded at intervals of 5 s were averaged. Neuronal activity was evoked by square pulse electrical stimuli (200 µs pulse width) delivered via a custom-made monopolar tungsten electrode to the Schaffer collateral-commissural pathway. The circular ROI was placed into the CA1 stratum radiatum near the stimulation electrode. The ROI also covered a part of the adjacent CA1 stratum pyramidale (Fig. 1 B). The intensity of voltage stimulation was adjusted to produce FDSs with peak amplitudes of ~30% of the highest attainable value.
Hippocampal CA3-CA1 synapses were electrically stimulated in brain slices from Fkbp51^+/+ and Fkbp51^-/- mice, and CA1 neuronal activity was monitored by means of voltagesensitive dye imaging (VSDI).
Series [10] deals with autophagy markers. Put plainly: Autophagy markers in protein extracts of hippocampus and prefrontal cortex after acute antidepressant injection. The series is classed as in vivo, mice. The conditions noted are these: FKBP51 WT versus FKBP51 KO mice; 10 mg kg-1. As for the experimental part:
Western blot analysis was performed on eluates from ColPs or with protein extracts from cells or tissue. Protein extracts were obtained by lysing cells or tissue (prelysed as described in the paragraph before) in 62.5 mM Tris, 2% SDS and 10% sucrose, supplemented with protease (Sigma, P2714) and phosphatase (Roche, 04906837001) inhibitor cocktail. Samples were sonicated and heated at 95 °C for 5 min. Proteins were separated by SDS-PAGE and electro-transferred onto nitrocellulose membranes. Blots were placed in Tris-buffered saline, supplemented with 0.05% Tween (Sigma, P2287) and 5% non-fat milk for 1 h at room temperature and then incubated with primary antibody (diluted in TBS/0.05% Tween) overnight at 4 °C. The following primary antibodies were used: Beclin1 (1:1000, Cell Signaling, #3495), Atg12 (1:1000, Cell Signaling #2010), LC3B-I/II (1:1000, Cell Signaling, #2775), FLAG (1:7000, Rockland, 600-401-383), FKBP51 (1:1000, Bethyl, A301-430A), Akt (1:1000, Cell Signaling, #4691), pAkt (1:1000, Ser473, T308, 1:1000, Cell Signaling, #4058, #9275), Actin (1:5000, Santa Cruz Biotechnologies, sc-1616), Skp2, myc (Addgene, 19947), GFP (santa cruz biotechnologies, sc-8334), p27 (cell signaling technologies, 3686), pULK,(S757, cell signaling technologies, 6888) APP-CTF (sigma-aldrich, A8717), DNMT1 (1:1000, Imgenex, IMG-261A), phospho-DNMT1 (S154), (1:1000, Abnova, PAB4924), ptau (S622; Santa Cruz Biotechnologies, #sc-16938).
Subsequently, blots were washed and probed with the respective horseradish peroxidase- or fluorophore-conjugated secondary antibody for 1 h at room temperature. The immuno-reactive bands were visualized either using ECL detection reagent (Millipore, Billerica, MA, USA, WBKL0500) or directly by excitation of the respective fluorophore. Determination of the band intensities were performed with BioRad, ChemiDoc MP, or X-ray-films.
The Fkbp51^-/- mouse line was previously generated (Touma C et al. (2011) Biol. Psychiatry 70: 928-936) and fully backcrossed to C57/BI6. […] Hippocampus and prefrontal cortex were extracted.

The nature of series [11]: Forced swim test after acute antidepressant injection in Fkbp51+/+ and Fkbp51-/- mice. To be noted: FKBP51 WT versus FKBP51 KO mice; 10 mg kg-1 intraperitoneal. The series is classed as in vivo. As for the experimental part: The Fkbp51^-/- mouse line was previously generated (Touma C et al. (2011) Biol. Psychiatry 70: 928-936) and fully backcrossed to C57/BI6. […] Hippocampus and prefrontal cortex were extracted. […] Male mice (age 10-16 weeks) were injected intraperitoneally with a single dose of either AMI (10 mg kg^-1) or saline vehicle. […] Another subgroup (WT n=5, KO n=5) was sacrificed, and brain tissue and blood was sampled for analysis of drug concentrations. […] The inventors performed an additional forced swim test administering the antidepressant amitriptyline in FKBP51 WT and FKBP51 KO mice (Fig. 1 B).

Series [12] relates to Beclin1 mRNA. Kind of series: Beclin1 mRNA expression by qPCR in rat cortical astrocytes. Type of series: cell-based. To be noted: 10µM for 72h; vehicle set to 1. As to the method: as §4
Total RNA was isolated from astroglial cells according to the manufacturer's protocol of NucleoSpin RNA II (Macherey-Nagel, Germany). In total, 300 ng of purified RNA was reverse transcribed using random primers (Promega) and Omniscript® Reverse Transcriptase (Qiagen). Based on the LightCycler® System (Roche Applied Science, Germany) and SYBR green detection (QuantiFast® SYBR Green; Qiagen), quantitative assessment of Beclin1 cDNA levels were performed. b-Actin PCR was performed serving as endogenous control for normalization. The primers used were: for Beclin1: antisense - 5'-[…]-3' sense - 5'-[…]-3'; and for β-Actin: antisense - 5'-[…]-3', sense-5'-[…]-3'. Relative changes of gene expression were calculated using the comparative ΔΔCT method (Livak and Schmittgen, METHODS 25, 402-408, 2001). Detection of viral RNA by real-time PCR was as recently described (Corman et al. (2014) Journal of Clinical Virology 60: 168-171).
Beclin1 mRNA expression levels were determined by qPCR. HEK cells were treated either with proteasome inhibitor MG132 or with vehicle for 5h and Beclin1 protein levels were determined by Western analysis. Furthermore Co-immunoprecipitations were performed with Beclin1 antibody in HEK cell lysates with ectopic Ub-GFP.

As for `CCCCc1ccc(NC(C)=O)c(C)c1` [SMIP004, N-(4-butyl-2-methylphenyl)acetamide], in [1], the “induction of autophagy (p27, Beclin1, Atg12, pULK S757; Beclin1 ubiquitinylation, Vps34 association)” value was “induces autophagy, independently of the mTOR-ULK1 cascade”. In addition, the “levels of soluble Aβ in plasma and CSF” value in series [2] is “reduces the levels of soluble Aβ in plasma and CSF”. The “cytotoxic effects (MTT assay)” value in [3] was “very low cytotoxic effects”. In addition, the “stabilization of Beclin1 (protein level, Western analysis)” value in series [4] was “potent stabilizer of Beclin1”. In series [5], the “antidepressant-like behavior in the tail suspension test” value is “antidepressant-like behavior comparable to animals treated with paroxetine”. In addition, the “effect on Beclin1 protein level” value in series [6] is listed as “particularly strong”. In addition, the “Beclin1 stabilization confirmed in other cell types and mice brain lysates” value in series [7] was “confirmed in various cell types as well as in mice brain lysates”. For the same molecule, the “levels of APP-CTF in the brain” value in series [8] is given as “reduces the levels of APP-CTF in the brain”. In series [9], the “synaptic neurotransmission (CA1 FDSs, VSDI)” value was “increased synaptic neurotransmission similarly to paroxetine”.

With `CN(C)CCC=C1c2ccccc2CCc2ccccc21` [amitriptyline], in series [10], the “effects on autophagy markers” value is recorded as “only observed in FKBP51 WT mice but not in FKBP51 KO mice”. Also, in series [11], the “behavioral effects, forced swim test” value is reported as “only observed in FKBP51 WT mice but not in FKBP51 KO mice”. The “Beclin1 mRNA expression level” value in series [12] was “do not change Beclin1-mRNA”.

`CNCCC(Oc1ccc(C(F)(F)F)cc1)c1ccccc1` (stereo not shown) [fluoxetine]: in series [12], the “Beclin1 mRNA expression level” value is listed as “do not change Beclin1-mRNA”.

For the origin of these results see patent publication EP2954896A1, “Small molecule inhibitors of the E3 Ligase Skp2 in depression and other diseases” (Max-Planck-Gesellschaft zur Förderung der Wissenschaften …, priority 2014, dated 2015).
